Laboratory results as given in patent publication US6420367B1, “Pyrimidine derivatives exhibiting antitumor activity” (Shionogo & Co., Ltd., priority 1998, dated 2002).
Converted amounts (≈) assume the structure as drawn.

Columns and labels:
[1] = system: DT-R cells (pRRE3-luc-transfected v-ki-ras-transformed NIH3T3 cells); signal derived from Ras oncogene products; assay: Inhibitory effect against cellular signaling derived from Ras oncogene products: luciferase reporter, dissociation of DT-R from DT-C activity (MAC); format: cell-based, mouse; conditions: minimal tested concentration at which luciferase activities of DT-C cells and DT-R cells dissociated
From the text: Test Example 1 Inhibitory Effect Against Cellular Signaling Derived From Ras Oncogene Products
1) Establishment of Cell Lines Used in Assay
Based on the reporter plasmid (pGV-P (Toyo Ink, Japan)), in which luciferase gene was ligated to SV40-derived minimal promoter, we constructed a plasmid designated pRRE3-luc by inserting 3 copies of chemically synthesized oligonucleotides (Sequence: CAGGATATGACTCT, derived from mouse NVL-3 (M. A. Reddy et al.(1992)Mol. Endocrinol., 6, 1051)) into upstream of the promoter. v-ki-ras-transformed NIH3T3 cells (DT cells, provided by Dr. Makoto Noda (Kyoto Univ., School of medicine)) were transfected with this plasmid by liposome-mediated transfection and transfected cell lines stably incorporated and maintained each plasmid were obtained. We named pGV-P and pRRE3-transfected cell line as DT-C and DT-R, respectively and used in the assay described below.
2) Preparation of Samples
i) All the cell lines were cultured in Dulbecco's Modified Essential Medium (DMEM: 10% Fetal Calf Serum(FCS: Hyclone, USA)) including […] kanamycin (Meiji Seika, Japan) in humidified incubator under condition of 5% CO2 at 37° C.
ii) DT-C and DT-R cells were seeded at 2500 cells/well into flat-bottom 96 well multiplate (Sumitomo bakelite) and incubated for 24 hours.
iii) Test compounds were prepared as 1 mg/ml DMSO solution.
iv) The solution of test compounds were added to the culture. Tested compounds are used at the concentration from […] to 0.51 ng/ml with by 3-fold dilution.
v) After 24 hours, the culture supernatant was completely aspirated and […] of cell-lysing solution (PGC-50 (Toyo Ink, Japan)) was added before cells were dried up. In order to the cells were lysed completely, multiwell plates were left at room temperature for 10 to 30 min. The plates were wrapped up and stored at −20° C. till the day of measurement.
3) Measurement of Samples
i) Melt the samples by putting 96 well multiplate at 37° C. and add 90 μl/well 25 mM Tris (pH 7.5).
ii) Transfer 50 μl of the sample (110 μl) to the 96 well microplate for measurement (Microlite 1 (Dynatech)).
iii) Measure the samples by the luminometer, LUMINOUS CT9000D (Dia-Yatron, Japan). We used Pickagene luminescence kit PGL2000 or LT2.0 (Toyo Ink, Japan) as substrates for luminescence measurement (50 μl/well).
4) Judgment of the Results
i) The luciferase activity of DT-C cells and DT-R cells were plotted in the graph where the relative activity and the compound concentration were expressed as Y-axis and X-axis, respectively. We judged by the degree of dissociation between the activities of DT-C cells and DT-R cells as an index.
ii) Concretely, efficacy of the compound was expressed by two values described below.
a) Among the points of concentration tested, the minimal concentration (Minimal Active Concentration: MAC), at which the activities of DT-C cells and DT-R cells dissociated, was shown as an index of efficacy of the compound.

[2] = system: human lung adenocarcinoma A549; assay: In vitro cell growth inhibition test, MTT assay; format: cell-based; conditions: MTT assay 4 days after compound addition
From the text: (§1) Test Example 2 In Vitro Cell Growth Inhibition Test Cells and MTT Assay
(§2) Human squamous lung cancer […], human squamous lung cancer Ma44, human lung adenocarcinoma A549, human colon cancer HT29 and human pancreas cancer PANC-1 were used.

[3] = system: human colon cancer HT29; assay: In vitro cell growth inhibition test, MTT assay; format: cell-based; conditions: MTT assay 4 days after compound addition
From the text: as §1, §2

[4] = system: human squamous lung cancer Ma44; assay: In vitro cell growth inhibition test, MTT assay; format: cell-based; conditions: MTT assay 4 days after compound addition
From the text: as §1, §2

[5] = system: human pancreas cancer PANC-1; assay: In vitro cell growth inhibition test, MTT assay; format: cell-based; conditions: MTT assay 4 days after compound addition
From the text: as §1, §2

[6] = system: human squamous lung cancer RERF-RC-AI; assay: In vitro cell growth inhibition test, MTT assay; format: cell-based; conditions: MTT assay 4 days after compound addition
From the text: as §1, §2

SMILES | MAC (Minimal Active Concentration) [1] | IC50, A549 [2] | IC50, HT29 [3] | IC50, Ma44 [4] | IC50, PANC-1 [5] | IC50, RERF-LC-AI [6]
CCCNC(=Nc1nc(C)ncc1CSc1nnc(-c2ccc([N+](=O)[O-])cc2)o1)NCC [Compound A-135] | 0.0137 µg/mL | 0.052 µg/mL (≈ 0.114 µM) | 0.01 µg/mL (≈ 0.0219 µM) | 0.016 µg/mL (≈ 0.035 µM) | 0.017 µg/mL (≈ 0.0372 µM) | 0.012 µg/mL (≈ 0.0263 µM)
CCCNC(=Nc1nc(CC)ncc1CSc1nnc(-c2ccc(N)cc2)o1)NCCC [Compound A-139] | <0.000508 µg/mL | 0.013 µg/mL (≈ 0.0286 µM) | 0.008 µg/mL (≈ 0.0176 µM) | 0.014 µg/mL (≈ 0.0308 µM) | 0.007 µg/mL (≈ 0.0154 µM) | 0.013 µg/mL (≈ 0.0286 µM)
CCNC(=Nc1nc(C)ncc1CSc1nnc(-c2ccc(N)cc2OC)o1)NCC [Compound A-141] | 0.0412 µg/mL | 0.051 µg/mL (≈ 0.115 µM) | 0.032 µg/mL (≈ 0.0723 µM) | 0.085 µg/mL (≈ 0.192 µM) | 0.021 µg/mL (≈ 0.0475 µM) | 0.016 µg/mL (≈ 0.0362 µM)
CCCNC(=Nc1nc(C)ncc1CSc1nnc(-c2ccc(N)cc2)o1)NC [Compound A-148] | 0.123 µg/mL | 0.49 µg/mL (≈ 1.19 µM) | 0.016 µg/mL (≈ 0.0388 µM) | 0.086 µg/mL (≈ 0.208 µM) | 0.015 µg/mL (≈ 0.0364 µM) | 0.011 µg/mL (≈ 0.0267 µM)
CCCNC(=Nc1nc(CC)ncc1CSc1nnc(-c2ccc([N+](=O)[O-])cc2)o1)NC [Compound A-150] | 0.123 µg/mL | 0.005 µg/mL (≈ 0.011 µM) | 0.031 µg/mL (≈ 0.0679 µM) | 0.14 µg/mL (≈ 0.307 µM) | 0.037 µg/mL (≈ 0.081 µM) | 0.016 µg/mL (≈ 0.035 µM)
CCCNC(=Nc1nc(CC)ncc1CSc1nnc(-c2ccc(N)cc2)o1)NC [Compound A-151] | 0.37 µg/mL | 0.07 µg/mL (≈ 0.164 µM) | 0.02 µg/mL (≈ 0.0469 µM) | 0.16 µg/mL (≈ 0.375 µM) | 0.024 µg/mL (≈ 0.0563 µM) | 0.013 µg/mL (≈ 0.0305 µM)
Cc1ncc(CSc2nnc(-c3ccc([N+](=O)[O-])cc3)o2)c(N=C(NC(C)C)NC(C)C)n1 [Compound A-165] | 0.123 µg/mL | 0.095 µg/mL (≈ 0.202 µM) | 0.052 µg/mL (≈ 0.111 µM) | 0.055 µg/mL (≈ 0.117 µM) | 0.05 µg/mL (≈ 0.106 µM) | 0.025 µg/mL (≈ 0.0531 µM)
Cc1ncc(CSc2nnc(-c3ccc(N)cc3)o2)c(N=C(NC(C)C)NC(C)C)n1 [Compound A-166] | 0.123 µg/mL | 0.056 µg/mL (≈ 0.127 µM) | 0.033 µg/mL (≈ 0.0749 µM) | 0.049 µg/mL (≈ 0.111 µM) | 0.028 µg/mL (≈ 0.0636 µM) | 0.016 µg/mL (≈ 0.0363 µM)
CCCNC(=Nc1nc(C)ncc1CSc1nnc(-c2ccc(N)cc2)o1)NCC [Compound A-167] | 0.0137 µg/mL | 0.012 µg/mL (≈ 0.0281 µM) | 0.0061 µg/mL (≈ 0.0143 µM) | 0.025 µg/mL (≈ 0.0586 µM) | 0.006 µg/mL (≈ 0.0141 µM) | 0.0032 µg/mL (≈ 0.0075 µM)
CCCCNC(=Nc1nc(C)ncc1CSc1nnc(-c2ccc(N)cc2)o1)NCCCC [Compound A-169] | 0.0412 µg/mL | 0.041 µg/mL (≈ 0.0875 µM) | 0.027 µg/mL (≈ 0.0576 µM) | 0.05 µg/mL (≈ 0.107 µM) | 0.025 µg/mL (≈ 0.0533 µM) | 0.021 µg/mL (≈ 0.0448 µM)
CNC(=Nc1nc(C)ncc1CSc1nnc(-c2ccc(N)cc2)o1)NC(C)C [Compound A-171] | 0.0137 µg/mL | 0.012 µg/mL (≈ 0.0291 µM) | 0.0064 µg/mL (≈ 0.0155 µM) | 0.013 µg/mL (≈ 0.0315 µM) | 0.006 µg/mL (≈ 0.0145 µM) | 0.004 µg/mL (≈ 0.0097 µM)
CCNC(=Nc1ncncc1CSc1nnc(-c2ccc([N+](=O)[O-])cc2)o1)NCC [Compound A-172] | 0.0137 µg/mL | 0.0075 µg/mL (≈ 0.0175 µM) | 0.0033 µg/mL (≈ 0.0077 µM) | 0.0038 µg/mL (≈ 0.00887 µM) | 0.0031 µg/mL (≈ 0.00723 µM) | 0.0015 µg/mL (≈ 0.0035 µM)
CNC(=Nc1ncncc1CSc1nnc(-c2ccc([N+](=O)[O-])cc2)o1)NC [Compound A-173] | 0.123 µg/mL | 0.017 µg/mL (≈ 0.0425 µM) | 0.006 µg/mL (≈ 0.015 µM) | 0.0072 µg/mL (≈ 0.018 µM) | 0.0072 µg/mL (≈ 0.018 µM) | 0.0037 µg/mL (≈ 0.00924 µM)
CCNC(=Nc1ncncc1CSc1nnc(-c2ccc(N)cc2)o1)NC [Compound A-176] | 0.123 µg/mL | 0.012 µg/mL (≈ 0.0312 µM) | 0.006 µg/mL (≈ 0.0156 µM) | 0.018 µg/mL (≈ 0.0468 µM) | 0.0056 µg/mL (≈ 0.0146 µM) | 0.0032 µg/mL (≈ 0.00832 µM)
CCNC(=Nc1ncncc1CSc1nnc(-c2ccc([N+](=O)[O-])cc2)o1)NC [Compound A-177] | 0.0412 µg/mL | 0.0082 µg/mL (≈ 0.0198 µM) | 0.0037 µg/mL (≈ 0.00893 µM) | 0.0043 µg/mL (≈ 0.0104 µM) | 0.0038 µg/mL (≈ 0.00917 µM) | 0.002 µg/mL (≈ 0.00483 µM)
CCCNC(=Nc1ncncc1CSc1nnc(-c2ccc(N)cc2)o1)NCC [Compound A-178] | 0.0412 µg/mL | 0.014 µg/mL (≈ 0.0339 µM) | 0.0067 µg/mL (≈ 0.0162 µM) | 0.024 µg/mL (≈ 0.0582 µM) | 0.005 µg/mL (≈ 0.0121 µM) | 0.0036 µg/mL (≈ 0.00873 µM)
CCCNC(=Nc1ncncc1CSc1nnc(-c2ccc([N+](=O)[O-])cc2)o1)NCC [Compound A-179] | 0.0137 µg/mL | 0.014 µg/mL (≈ 0.0316 µM) | 0.0063 µg/mL (≈ 0.0142 µM) | 0.0026 µg/mL (≈ 0.00588 µM) | 0.0018 µg/mL (≈ 0.00407 µM) | 0.002 µg/mL (≈ 0.00452 µM)
CCCCNC(=Nc1nc(C)ncc1CSc1nnc(-c2ccc(N)cc2)o1)NCC [Compound A-180] | 0.00457 µg/mL | 0.014 µg/mL (≈ 0.0318 µM) | 0.012 µg/mL (≈ 0.0272 µM) | 0.016 µg/mL (≈ 0.0363 µM) | 0.0081 µg/mL (≈ 0.0184 µM) | 0.008 µg/mL (≈ 0.0182 µM)
C=CCNC(=Nc1nc(C)ncc1CSc1nnc(-c2ccc([N+](=O)[O-])cc2)o1)NCC [Compound A-181] | 0.0137 µg/mL | 0.0087 µg/mL (≈ 0.0191 µM) | 0.0061 µg/mL (≈ 0.0134 µM) | 0.0065 µg/mL (≈ 0.0143 µM) | 0.0057 µg/mL (≈ 0.0125 µM) | 0.0051 µg/mL (≈ 0.0112 µM)
C#CCNC(=Nc1nc(C)ncc1CSc1nnc(-c2ccc([N+](=O)[O-])cc2)o1)NCC [Compound A-183] | 0.00457 µg/mL | 0.0039 µg/mL (≈ 0.00862 µM) | 0.002 µg/mL (≈ 0.00442 µM) | 0.0021 µg/mL (≈ 0.00464 µM) | 0.0026 µg/mL (≈ 0.00575 µM) | 0.0013 µg/mL (≈ 0.00287 µM)
CCNC(N)=Nc1nc(C)ncc1CSc1nnc(-c2ccc(N)cc2)o1 [Compound A-184] | 0.0412 µg/mL | 0.01 µg/mL (≈ 0.026 µM) | 0.0077 µg/mL (≈ 0.02 µM) | 0.016 µg/mL (≈ 0.0416 µM) | 0.0032 µg/mL (≈ 0.00832 µM) | 0.0027 µg/mL (≈ 0.00702 µM)
CCNC(N)=Nc1nc(C)ncc1CSc1nnc(-c2ccc([N+](=O)[O-])cc2)o1 [Compound A-185] | 0.0137 µg/mL | 0.013 µg/mL (≈ 0.0314 µM) | 0.0064 µg/mL (≈ 0.0154 µM) | 0.0062 µg/mL (≈ 0.015 µM) | 0.0041 µg/mL (≈ 0.00989 µM) | 0.0029 µg/mL (≈ 0.007 µM)
CCCNC(=Nc1nc(C)ncc1CSc1nnc(-c2ccc([N+](=O)[O-])cc2)o1)NCC.Cl [Compound A-188] | 0.0137 µg/mL | 0.052 µg/mL | 0.01 µg/mL | 0.016 µg/mL | 0.017 µg/mL | 0.012 µg/mL
